In this assay the target is T1, GPR158 (Homo sapiens, UniProt Q5T848).
T1 sequence (Q5T848 24-1215): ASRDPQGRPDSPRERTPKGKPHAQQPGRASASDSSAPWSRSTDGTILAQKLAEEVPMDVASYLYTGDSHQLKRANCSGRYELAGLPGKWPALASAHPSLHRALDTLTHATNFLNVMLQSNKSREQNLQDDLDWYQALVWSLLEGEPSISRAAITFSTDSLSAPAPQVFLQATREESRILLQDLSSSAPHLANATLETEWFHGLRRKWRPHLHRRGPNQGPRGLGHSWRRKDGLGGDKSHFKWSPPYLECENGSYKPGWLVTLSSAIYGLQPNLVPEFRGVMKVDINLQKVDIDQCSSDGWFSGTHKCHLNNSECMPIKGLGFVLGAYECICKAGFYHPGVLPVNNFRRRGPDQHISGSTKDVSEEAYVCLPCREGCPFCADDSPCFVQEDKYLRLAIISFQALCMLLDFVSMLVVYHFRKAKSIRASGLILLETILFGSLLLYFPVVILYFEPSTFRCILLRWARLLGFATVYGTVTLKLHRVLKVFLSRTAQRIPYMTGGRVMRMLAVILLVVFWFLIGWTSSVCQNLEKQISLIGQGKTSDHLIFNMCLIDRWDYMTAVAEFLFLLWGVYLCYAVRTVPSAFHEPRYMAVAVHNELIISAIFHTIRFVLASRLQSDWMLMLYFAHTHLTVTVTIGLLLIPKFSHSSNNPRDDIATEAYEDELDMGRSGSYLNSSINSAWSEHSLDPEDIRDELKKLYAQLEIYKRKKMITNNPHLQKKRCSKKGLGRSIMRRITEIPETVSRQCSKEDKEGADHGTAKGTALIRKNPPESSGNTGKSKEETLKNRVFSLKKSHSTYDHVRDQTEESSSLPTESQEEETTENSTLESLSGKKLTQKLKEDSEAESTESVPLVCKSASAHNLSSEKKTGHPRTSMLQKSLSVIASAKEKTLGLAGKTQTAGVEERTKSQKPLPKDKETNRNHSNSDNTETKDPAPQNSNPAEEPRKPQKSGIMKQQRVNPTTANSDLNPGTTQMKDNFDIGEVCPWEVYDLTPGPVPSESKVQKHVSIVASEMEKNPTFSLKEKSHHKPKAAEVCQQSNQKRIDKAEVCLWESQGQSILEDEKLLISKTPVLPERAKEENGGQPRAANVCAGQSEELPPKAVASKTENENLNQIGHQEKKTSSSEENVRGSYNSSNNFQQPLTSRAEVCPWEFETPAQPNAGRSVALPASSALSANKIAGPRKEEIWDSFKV
The assay can be described thus: Radioligand competition binding assay vs ^3H-glycine. The arrangement: expressed in transfected cells; host or cells: HEK293FT. The note with it: for IC50: membranes from HEK293 cells expressing GPR158, 4 experiments, mean±s.e.m., read-out: IC50 (displacement of ^3H-glycine). As to the method: FIG. 8. Radioligand competition binding assay comparing binding of glycine and taurine to GPR158 Membranes from HEK293 cells expressing GPR158 were first incubated with ^3H-Glycine setting binding to 100% and then exposed to increasing concentrations of cold glycine (open circles) or cold taurine (circles with angled-line fill). Data shown are from 4 independent experiments, mean±s.e.m.
Next, the inventors performed radioligand binding assays examining binding of [^3H]-labeled glycine to HEK293 cells expressing GPR158 (FIG. 7A). […] The inventors have then isolated cellular membranes and conducted classical radioligand titration experiments (FIG. 9D). The inventors detected saturable [^3H]-glycine binding to membranes containing GPR158 is substantial excess over linear non-specific binding to membranes devoid of GPR158 (FIG. 9E). Scatchard analysis (FIG. 9F) estimated Kd of GPR158 for glycine to be ~3 μM. The inventors further performed binding competition experiments directly comparing the ability of glycine and taurine to displace [^3H]-labeled glycine bound to GPR158 (FIG. 8).
The functional data shown represent the average±SEM of 3-9 individual experiments each performed in triplicate or indicated in each figure and expressed as means±standard error means (s.e.m). For cAMP assays, cells transfected with empty vector were used as control and one-way ANOVA test was performed. For the GAP assay, cells with the same transfection conditions were compared on their treatment and two-way ANOVA test was performed. The non-linear regression curve was used to fit on the dose response curve giving the IC50 value. For the flow cytometry and radioligand binding assays cells transfected with empty vector were used as control and two-way ANOVA test was performed. For the radioligand competition assay, dissociation-One phase exponential decay was used to fit on data and give the Ki value. For the ITC dose response curve, the non-linear regression curve was used to fit on the curve. […] For the electrophysiology experiments changes was assessed in nonparametric t-test; Wilcoxon test. […]
Background: In a radioligand displacement assay an active substance lowers the binding of a labelled ligand.

`NCCS(=O)(=O)O` [taurine, 2-aminoethanesulfonic acid]: the IC50 (usually the concentration that inhibits the measured activity by half) is approximately 6 µM. Also, the “affinity of taurine relative to glycine” value (competition binding IC50 comparison) is on record as “two fold lower affinity”.
Take `NCC(=O)O` [glycine]: the IC50 was approximately 3 µM.

The values are drawn from patent publication US20260376293A1, “METHODS FOR STUDYING GPR158 PHARMACOLOGY AND IDENTIFICATION OF ITS LIGANDS” (UNIVERSITY OF FLORIDA RESEARCH FOUNDATION, INCORPORATED, priority 2022, published 2026).
